Test results: patent US20080096894A1, “Anti-Bacterial Compounds” (ASTON UNIVERSITY, priority 2005, published 2008)
Values after ≈ are worked out from the molar mass of the structure shown.

How the values were obtained:
Experiment in all cases: MIC, agar dilution, multipoint inoculator
[1] = system: MRSA; type: cell-based, methicillin-resistant Staphylococcus aureus; settings: for MIC: upper value of MIC reading, in µg/mL; for MRSA MIC range: panel of ten MRSA strains (clinical isolates)
Protocol: (§1) This activity was measured using a multipoint inoculator method as follows. The MIC for each compound was measured using an agar dilution method (Onda, H., et al., Int. J. Antimicrob. Agents. 18, 263 (2001)) (Mueller Hinton agar) by means of a multipoint inoculator delivering 10^4 colony forming units per spot.
‘Staph’ refers to the reference strain of S. aureus (NCTC 6571). A tick in the MRSA column refers to a positive zone against MRSA strain 96-7474, and the MIC range (in μg/ml) which follows is that found against a panel of ten MRSA strains. Where MIC values are given for MRSA, these are stated as a range of values, as testing was carried out on a panel of clinical isolates.

[2] = system: S. aureus; type: cell-based, Staphylococcus aureus; settings: upper value of MIC reading
Protocol: as §1

[3] = system: P. auriginosa; type: cell-based, Pseudomonas aeruginosa; settings: P. auriginosa NCTC 6749; upper value of MIC reading
Protocol: as §1

[4] = system: S. epidemisis; type: cell-based, Staphylococcus epidermidis; settings: upper value of MIC reading
Protocol: as §1

[5] = system: S. haemolyticus; type: cell-based; settings: S. haemolyticus Isolate 1; upper value of MIC reading
Protocol: as §1

[6] = system: E. faecalis; type: cell-based; settings: upper value of MIC reading
Protocol: as §1

[7] = system: S. maltophilia; type: cell-based; settings: S. maltophilia NCTC 10257; upper value of MIC reading
Protocol: as §1

[8] = system: S. marcesens; type: cell-based, Serratia marcescens; settings: S. marcesens 4444; upper value of MIC reading
Protocol: as §1

[9] = system: K. pneumoniae; type: cell-based, Klebsiella pneumoniae; settings: K. pneumoniae 327; upper value of MIC reading
Protocol: as §1

[10] = system: B. bronchiseptica; type: cell-based; settings: B. bronchiseptica NCTC 8344; upper value of MIC reading
Protocol: as §1

[11] = system: S. aboni; type: cell-based; settings: S. aboni NCTC 6017; upper value of MIC reading
Protocol: as §1

[12] = system: E. cloacae; type: cell-based, Enterobacter cloacae; settings: E. cloacae NCTC 11582; upper value of MIC reading
Protocol: as §1

[13] = system: E. faecium; type: cell-based, Enterococcus faecium; settings: upper value of MIC reading
Protocol: as §1

Row | Structure (SMILES) | MIC ([1]; MRSA Isolate 1) | MIC ([1]; MRSA Isolate 2) | MIC ([1]; MRSA Isolate 3) | MIC ([1]; MRSA Isolate 4) | MIC ([1]; MRSA Isolate 5) | MIC ([1]; MRSA Isolate 10) | MRSA MIC range [1] [µg/mL] | MIC ([2]; S. aureus NCTC 6571) [µg/mL] | MIC [3] [µg/mL] | MIC ([4]; S. epidemisis NCTC 11047) [µg/mL] | MIC [5] [µg/mL] | MIC ([6]; E. faecalis EBH1) [µg/mL] | MIC ([6]; E. faecalis Isolate 1) [µg/mL] | MIC ([6]; E. faecalis Isolate 2) [µg/mL] | MIC ([6]; E. faecalis NCTC 5957) [µg/mL] | MIC [7] [µg/mL] | MIC [8] [µg/mL] | MIC [9] [µg/mL] | MIC ([1]; MRSA Isolate 6) | MIC ([1]; MRSA Isolate 7) | other results
1 | CCOc1ccccc1C=NN=C(N)c1cccnc1 [Compound 3PYay] | 256 | 128 | 128 | 128 | 128 | 256 | > 256 | > 256 | 128 (≈ 477 µM) | 128 (≈ 477 µM) | 256 (≈ 954 µM) | 128 (≈ 477 µM) | 128 (≈ 477 µM) | 128 (≈ 477 µM) | 128 (≈ 477 µM) | 256 (≈ 954 µM) | 256 (≈ 954 µM) | 256 (≈ 954 µM) | – | – | –
2 | O=Cc1cc([N+](=O)[O-])ccc1O [cj] | 2 | 4 | 2 | 2 | 2 | 4 | – | 4 (≈ 23.9 µM) | 256 (≈ 1530 µM) | 2 (≈ 12 µM) | – | – | 256 (≈ 1530 µM) | – | – | 256 (≈ 1530 µM) | – | 256 (≈ 1530 µM) | 4 | 4 | MIC ([1]; MRSA Isolate 8): 4; MIC ([1]; MRSA Isolate 9): 4; MIC ([2]; S. aureus Cowan 1): 16 µg/mL (≈ 95.7 µM); MIC ([2]; S. aureus NCTC 10788): 2 µg/mL (≈ 12 µM); MIC ([4]; S. epidemisis Isolate 1): 2 µg/mL (≈ 12 µM); MIC [10]: 256 µg/mL (≈ 1530 µM); MIC ([6]; E. faecalis Isolate 5): 256 µg/mL (≈ 1530 µM); MIC [11]: 1 µg/mL (≈ 5.98 µM); MIC [12]: 256 µg/mL (≈ 1530 µM)
3 | Oc1cc(O)c(C=NNc2ccccn2)c(O)c1 [HDcd] | 256 | 256 | 256 | 256 | 256 | 256 | 128 to 256 | 256 (≈ 1040 µM) | 256 (≈ 1040 µM) | 128 (≈ 522 µM) | 128 (≈ 522 µM) | 256 (≈ 1040 µM) | 128 (≈ 522 µM) | 128 (≈ 522 µM) | 256 (≈ 1040 µM) | 128 (≈ 522 µM) | 256 (≈ 1040 µM) | 256 (≈ 1040 µM) | 256 | 256 | MIC ([1]; MRSA Isolate 8): 256; MIC ([1]; MRSA Isolate 9): 256; MIC ([2]; S. aureus Cowan 1): 256 µg/mL (≈ 1040 µM); MIC ([2]; S. aureus NCTC 10788): 256 µg/mL (≈ 1040 µM); MIC ([13]; E. faecium ACTCC 10541): 256 µg/mL (≈ 1040 µM); MIC ([13]; E. faecium NCTC 7171): 256 µg/mL (≈ 1040 µM); MIC ([4]; S. epidemisis Isolate 1): 128 µg/mL (≈ 522 µM); MIC [10]: 256 µg/mL (≈ 1040 µM); MIC ([6]; E. faecalis Isolate 3): 128 µg/mL (≈ 522 µM); MIC ([6]; E. faecalis Isolate 4): 256 µg/mL (≈ 1040 µM); MIC ([6]; E. faecalis Isolate 5): 128 µg/mL (≈ 522 µM); MIC [11]: 128 µg/mL (≈ 522 µM); MIC [12]: 256 µg/mL (≈ 1040 µM)
